{"source": "a melting point compilation (Tetko et al.; mined from patent text by program, amines drawn as free bases though some values may be those of a salt)", "data": [{"units": {"melting point": "°C"}, "values": [{"smiles": "COC(=O)c1ccc(C2=NC(C)(C)Cc3cc(OC)c4c(c32)CC(C)(C)O4)cc1N", "melting point": "161 to 162"}, {"smiles": "CN(C)c1ccc(CNC(=O)[C@@H](Cc2ccccc2)NC(=O)CCC(=O)O)cc1", "melting point": "194 to 196"}, {"smiles": "CCOc1ccnc2[nH]ccc12", "melting point": "176 to 178"}, {"smiles": "CCCn1c(=O)c2[nH]c(C)nc2n(CCC)c1=O", "melting point": "202 to 203"}, {"smiles": "Nc1cccc(-c2cnc(N)nc2)c1", "melting point": "171 to 172"}, {"smiles": "O=C(Nc1ccc2c(c1)CCC(CCN1CCCC1)=C2)c1ccc(-c2ccc(F)cc2)cc1", "melting point": "187 to 189"}, {"smiles": "CS(=O)(=O)Oc1ccc(=O)[nH]n1", "melting point": 148}, {"smiles": "CC1Oc2ccc([N+](=O)[O-])cc2O1", "note": "(stereo not drawn)", "melting point": "84 to 95"}, {"smiles": "NCCNC(=O)COc1ccc(C2=NNC(=O)CC2)cc1", "melting point": "176 to 178"}, {"smiles": "N#Cc1cnn2c1N(C(=O)CN1CCC(Cc3ccccc3)CC1)CC=C2c1cc(Cl)ccc1Cl", "melting point": "157 to 158"}, {"smiles": "O=C(O)Cc1c(-c2ccccc2)nn2cccnc12", "melting point": "78 to 90"}, {"smiles": "ON=C(c1ccccc1)c1nsc2nc3ccccc3n12", "melting point": 247}, {"smiles": "COc1nc2cc(Cl)c(Cl)c(NS(=O)(=O)c3ccccc3)c2nc1OC", "melting point": "292 to 293"}, {"smiles": "Cc1cccc(SCc2c(C(C)C)nc(C(C)C)c(CO)c2-c2ccc(F)cc2)c1", "melting point": "92 to 93"}, {"smiles": "CCC1(C)SC(N(C)C(=O)NC)=NN1C(=O)C(C)(C)C", "note": "(stereo not drawn)", "melting point": "124 to 127"}, {"smiles": "C=CC12CCC3(C)C(F)C(O)CC3C1CCc1cc(O)ccc12", "note": "(stereo not drawn)", "melting point": "94 to 98"}, {"smiles": "COc1ccc(N2C(=O)N(c3cccc(C#N)c3)c3nc(Nc4ccccc4)ncc3C2C)cc1", "note": "(stereo not drawn)", "melting point": "224 to 228"}, {"smiles": "CCC(=O)N(C)c1cccc(C(=O)C=CN(C)C)c1", "melting point": "148 to 149"}, {"smiles": "O=C(Nc1ccc(-n2nc(C3CC3)cc2C2CC2)cc1)c1c(Cl)cncc1Cl", "melting point": "159 to 164"}, {"smiles": "CN(C(=O)c1cccc(Cn2cnc3ccccc32)c1)C1CCCCC1", "melting point": "99 to 101"}, {"smiles": "CCc1ccccc1NC=C1C(=O)N(c2ccc(C(N)=O)cc2)N=C1C", "melting point": 225}, {"smiles": "Cc1nc(-c2ccc(C(F)(F)F)cc2)sc1CSc1ccc2oc(C(=O)O)cc2c1", "melting point": "207 to 209"}, {"smiles": "COc1cc(NC(C)=O)c(Cl)cc1C(=O)NN1CCN(Cc2ccccc2)CC1", "melting point": 185}, {"smiles": "NS(=O)(=O)c1cccc(-c2cn(-c3nc(-c4ccc(F)c(F)c4)cc(C(F)(F)F)n3)cn2)c1", "melting point": 242}, {"smiles": "CC(=O)n1c(CCc2ccccc2)cc2c(I)ccnc21", "melting point": "109 to 110"}, {"smiles": "CCN(CC1CC1)c1c([N+](=O)[O-])cc(C(F)(F)F)c(N)c1[N+](=O)[O-]", "melting point": "99 to 100"}, {"smiles": "O=c1c(-c2ccc(Cl)cc2)coc2cc(O)c(O)cc12", "melting point": 299}, {"smiles": "S=C1NCCCN1c1ccccc1", "melting point": "211 to 212"}, {"smiles": "O=C(c1ccc2nonc2c1)N1CC2CC1CO2", "note": "(stereo not drawn)", "melting point": "102 to 104"}, {"smiles": "CCN1CN2C(=N1)C(c1ccccc1Cl)=NCC1=C2S(=O)C(C(=O)NC)C1", "note": "(stereo not drawn)", "melting point": "193 to 194"}, {"smiles": "CC(C)(C)OC(=O)N1CCc2c(Br)cccc2C1", "melting point": "75.6 to 80.4"}, {"smiles": "COC(=O)[C@@H]1C[C@H](OC(=O)c2ccsc2)C(=O)[C@H]2[C@@]1(C)CC[C@H]1C(=O)O[C@H](c3ccoc3)C[C@]21C", "melting point": "211 to 212"}, {"smiles": "O=C(Cl)c1ccc(OCc2ccccc2)c(OCc2ccccc2)c1", "melting point": "92.5 to 94.5"}, {"smiles": "C#CCOc1c(CO)ccc2ccccc12", "melting point": "65 to 68"}, {"smiles": "CCOC(=O)c1ccc(/C=C/c2ccc3c(c2)C(C)(C)CC3(C)C)cc1", "melting point": "151 to 152"}, {"smiles": "c1ccc(N2CCN(Cc3c[nH]c4ncccc34)CC2)cc1", "melting point": "207 to 209"}, {"smiles": "CCCCCCCCCC(=O)OC1=C(c2nnc(CCCCCCCCC)o2)N(C)S(=O)(=O)c2ccccc21", "melting point": "68 to 69"}, {"smiles": "CC(=O)N(C)c1cc(OCc2ccccc2)c2nc(C)n(C)c2c1", "melting point": "144 to 149"}, {"smiles": "O=C(Nc1c(C(O)(C(F)(F)F)C(F)(F)F)ccc2ccccc12)C1CCC1", "melting point": "185 to 186"}, {"smiles": "O=C1c2ccc([N+](=O)[O-])c3c([N+](=O)[O-])ccc(c23)C(=O)N1O", "melting point": "290 to 291"}, {"smiles": "CCOC(=O)c1cc2c3ccccc3n(Cc3ccccc3)c2c(C)n1", "melting point": "155 to 156"}, {"smiles": "NC(=O)c1ccc(-c2ccc3[nH]c(=O)ccc3c2)cc1", "melting point": "> 320"}, {"smiles": "COc1ccc([C@H](Sc2ccccc2N)[C@@H](O)C(=O)Nc2ccccc2)cc1", "melting point": "215 to 217"}, {"smiles": "CN1CCc2cccc3c2C1Cc1ccc(O)c(O)c1-3", "note": "(stereo not drawn)", "melting point": "158 to 160"}, {"smiles": "CCOc1ccc(OCC(=O)OC(C)(C)C)c2c1C(=O)N(CSc1nnnn1-c1ccccc1)S2(=O)=O", "melting point": "110 to 112"}, {"smiles": "OC1CCCN(CC(O)COc2ccc(-c3ccc(Cl)cc3)cc2)C1", "note": "(stereo not drawn)", "melting point": "95 to 97"}, {"smiles": "COc1cc(COc2nn(Cc3ccccc3)cc2C(C)O)ccc1OCc1nc(-c2ccco2)oc1C", "note": "(stereo not drawn)", "melting point": "105 to 106"}, {"smiles": "CC(=O)N(c1cc2occc(=O)c2cc1Oc1ccccc1)S(C)(=O)=O", "melting point": "166 to 169"}, {"smiles": "CC(C#N)c1ccc(C(=O)c2ccc(Cl)s2)cc1", "note": "(stereo not drawn)", "melting point": 90}, {"smiles": "OCC1(CO)COCCNCCOCCCOCCNCCO1", "melting point": "137 to 140"}, {"smiles": "Fc1ccc(Br)c2ccsc12", "melting point": "47 to 48"}, {"smiles": "Cn1cc(C(=O)N=C=O)c([N+](=O)[O-])n1", "melting point": "55 to 59"}, {"smiles": "CCOc1cc(-c2cc(C(F)F)n3ncc(C(=O)O)c3n2)ccc1C(F)(F)F", "melting point": 247}, {"smiles": "Oc1ccc2c(c1)C13CCCCC1(Cc1ccccc1)C(C2)N(CC1CC1)CC3", "note": "(stereo not drawn)", "melting point": "> 280"}, {"smiles": "COc1nc(C)nc2c1-c1ccc(Cl)cc1C(c1ccccc1)=NC2", "melting point": "185 to 187"}, {"smiles": "COc1ccc(Cn2cc3nc(Cl)nc(OCc4ccccc4)c3n2)cc1", "melting point": "150 to 153"}, {"smiles": "O=C(c1ccc(-c2ccc(CBr)cc2)cc1)c1ccc(Cl)cc1Cl", "melting point": 92}, {"smiles": "COc1ccc(/C=C/c2nc3c(c(=O)n(C)c(=O)n3C)n2C)c(OC)c1", "melting point": 242}, {"smiles": "O=C1c2ccccc2-c2c1c1ccccc1c(=O)n2CCCO", "melting point": "173 to 175"}, {"smiles": "N#Cc1ccc(C=S)c(-c2ccccc2)c1", "melting point": 88}, {"smiles": "FC(F)(F)COc1ccnc(Oc2ccc(CCNc3ncnc4nccnc34)cc2)c1", "melting point": 166}, {"smiles": "NNc1cc2ccccc2[nH]1", "melting point": "165 to 167"}, {"smiles": "Cc1ccc([C@@H](O)C=CC(C)(C)C)cc1", "melting point": "38 to 40"}, {"smiles": "CNC(=O)C(Cc1ccc(OCCc2nc(-c3ccccc3)oc2C)cc1)C(=O)NC", "melting point": "217 to 219"}, {"smiles": "CCOC(=O)c1cnn2c(-c3ccncc3)ccnc12", "melting point": "209 to 210"}, {"smiles": "CC(C)CC(=O)Nc1ccc2oc3c(c2c1)CCCC3", "melting point": "154 to 157"}, {"smiles": "CCOC(=O)Cc1ccc(NC(=O)C(COS(C)(=O)=O)NS(=O)(=O)c2ccc(Br)cc2)cc1", "note": "(racemic)", "melting point": "155 to 156"}, {"smiles": "Clc1ccc(OC2CN(C(c3ccccc3)c3ccccc3)C2)cc1Cl", "melting point": "114 to 115"}, {"smiles": "O=C(C=Cc1ccccc1)C(Cc1ccccc1)C(=O)C=Cc1ccccc1", "note": "(stereo not drawn)", "melting point": "156 to 158"}, {"smiles": "CC(C)(C)OC(=O)Cc1n[nH]c(=O)c2ccccc12", "melting point": "164 to 166"}, {"smiles": "CC(=O)N[C@@H]1CCCC[C@H]1OCC(=O)O", "note": "(relative stereo)", "melting point": "141 to 143"}, {"smiles": "COc1ccccc1-c1nc2ccc(C(=O)O)cc2c(=O)[nH]1", "melting point": "295 to 297"}, {"smiles": "CON1CCC2(CC1)NC(=O)C(c1cc(-c3ccc(Cl)cc3)c(F)cc1C)=C2OC(=O)C(C)(C)C", "melting point": "150 to 151"}, {"smiles": "C#CCOc1nc(-n2ccnc2)c(I)c(C(F)(F)F)n1", "melting point": "128 to 129"}, {"smiles": "CC1(C)Oc2ccccc2-n2cccc21", "melting point": 38}, {"smiles": "COc1cc(C(C)=O)cc(C#N)c1OC", "melting point": "125 to 126"}, {"smiles": "CCOC(=O)c1c[nH]nc1OC(C)C", "melting point": "55 to 56"}, {"smiles": "CC(=O)c1cc2c(c(O)c1Cl)C(C)(C)CC2(C)C", "melting point": "78 to 80"}, {"smiles": "CCCCCCCCCCCCCCCCCCNCC(O)CO", "note": "(stereo not drawn)", "melting point": "81 to 83"}, {"smiles": "NC(=NC(=O)c1nc(Cl)c(N)nc1N)NCCCCCCCCCCCC(=O)Nc1ncc[nH]1", "melting point": "102 to 104"}, {"smiles": "O=C1CC2(Cc3cc4ccccc4n3C2)C(=O)N1", "note": "(stereo not drawn)", "melting point": "215 to 220"}, {"smiles": "CCOC(=O)c1nc2cc(C)sc2nc1N", "melting point": "121 to 123"}, {"smiles": "COc1ccc(CNc2nc(NCCCc3cccc(C(C)=O)c3)nc3ncccc23)cc1OC", "melting point": "152 to 155"}, {"smiles": "COC(=O)C=Cc1cc(C)n(CCNC(C)=O)c1C", "melting point": "144 to 145"}, {"smiles": "Cn1c(CCN2CCC(c3ccccc3)CC2)nc2ccc3ccccc3c21", "melting point": 182}, {"smiles": "O=C(O)c1cc2cc(Cl)ccc2[nH]c1=O", "melting point": "> 310"}, {"smiles": "COC(=O)c1cccc(-c2cc(-c3ccccc3)on2)c1", "melting point": "99 to 100"}, {"smiles": "CCOC(=O)c1sc(C)c2c1CCCC2=O", "melting point": "76 to 77"}, {"smiles": "CCn1c(N)c(C(N)=O)c(=O)c2cnc(Nc3ccc(NCC(=O)C4CC4)cc3)nc21", "melting point": 248}, {"smiles": "Cc1cc(O)ccc1NCCc1ccccn1", "melting point": "138 to 140"}, {"smiles": "CC1=NC(SCc2ccccc2)=CC2=CN(C)NN21", "melting point": "108 to 111"}, {"smiles": "CCc1c(F)nc(-c2ccccc2)nc1F", "melting point": "49 to 51"}, {"smiles": "CC(=O)N1CC(CCN2CC=C(c3c[nH]c4cc(Cl)ccc34)CC2)c2ccccc21", "note": "(stereo not drawn)", "melting point": "169 to 170"}, {"smiles": "CCOc1cc([C@@H](CC(=O)N(C)C)N2Cc3cccc(NC(=O)N(C)C)c3C2=O)ccc1OC", "melting point": "105 to 107"}, {"smiles": "COc1ccc(NC(=O)c2ccc(C3=NC(C)(C)Cc4cc(OC)c5c(c43)CC(C)(C)O5)cc2)cc1", "melting point": "120 to 122"}, {"smiles": "CCOc1ccc(-c2csc(-c3cccc(C(=O)OC)c3)n2)cc1", "melting point": "192 to 193"}, {"smiles": "CC(C)(C)OC(=O)C(CCC(N)=O)N1Cc2c(O)cccc2C1=O", "note": "(stereo not drawn)", "melting point": "198 to 200"}, {"smiles": "CN1C(=O)N(Cc2cc(C(F)(F)F)cc(C(F)(F)F)c2)C(=O)C1=Cc1c[nH]c2ccccc12", "melting point": "145 to 147"}, {"smiles": "CCOC(=O)c1cnc(Oc2cc(OCCOC)ccc2CCCOC(=O)NCC2CC2)c(Cl)c1", "melting point": "94.6 to 94.8"}, {"smiles": "COC(=O)C1CCc2cc(F)cc(C(F)(F)F)c2O1", "note": "(stereo not drawn)", "melting point": 71.8}, {"smiles": "CCOC(=O)Cc1c(C)n(Cc2ccc(SC)cc2)c2ccc(OCc3nc4ccccc4s3)cc12", "melting point": "101 to 102"}, {"smiles": "Cc1nc2ccccc2c(=O)n1-c1ccc(Cl)cc1", "melting point": "141 to 142"}, {"smiles": "O=[N+]([O-])CCc1ccc2ccccc2c1", "melting point": "59 to 60"}]}]}
